Experimental data as given in patent US8895579B2, “Heterotricyclic AMPA receptor antagonists for treatment of epilepsy, pain, and other neurological disorders and diseases” (Northwestern University, priority 2010, dated 2014).
Entries after “also recorded” stand apart in the source; their conditions may differ.

Experiments:
[1] = test system: NMDA receptor-mediated EPSCs, CA1 pyramidal cells; assay: NMDA receptor EPSCs at Schaffer collateral-CA1 synapses, acute hippocampal slices; assay type: cell-based, mouse; details: 20 μM; 5 min treatment
Protocol: For recordings from acute hippocampal slices, brains from P15-21 C57Bl/6 mice were sliced transversely (350 μm thickness) in a sucrose slicing solution containing (in mM) 85 NACl, 2.5 KCl, 1.25 NaH2PO4, 25 NaHCO3, 25 glucose, 75 sucrose, 0.5 CaCl2, 4 MgCl2, 0.5 Na ascorbate, 10 μM DL-APV and 100 μM kynurenic acid (pH 7.3). After slicing, the solution was exchanged with an incubation solution containing (in mM) 125 NaCl, 2.4 KCl, 1.2 NaH2PO4, 25 NaHCO3, 25 glucose: 1 CaCl2, 2 MgCl2, 0.5 Na ascorbate, 10 μM DL-APV and 100 μM kynurenic acid (pH 7.3) that was bubbled continuously with CO2-balanced O2 (carbogen). […] Recordings in voltage clamp mode used the CsF/CsCl internal solution and carbogenated external recording solution containing (in mM) 120 NaCl, 2.4 KCl, 2 MgCl2, 1 CaCl2, 25 NaHCO3, 1.2 NaH2PO4, 25 glucose, 10 μM bicuculline methiodide, 50 μM PTX and 50 μM D-APV (pH 7.3). […] NMDA EPSCs were validated by addition of D-APV (50 μM) at the end of each recording. Hippocampal CA1 or CA3 pyramidal cells were voltage clamped at −70 mV and stimulated with a monopolar electrode either the stratum radiatum or stratum lucidum, respectively. […] EPSC charge transfer, AP frequency, paired-pulse ratio and EPSC peak amplitude were analyzed with Mini-Analysis v6.03 (Synaptosoft, Decatur, Ga.) and Clampfit v10.0 (MDS, Sunnyvale, Calif.) software.

GluA2 = target: T1, GluA2 (Rattus norvegicus, UniProt P19491); assay: [3H]-AMPA radioligand binding, membranes of HEK293-T/17 cells expressing GluA2; details: 100 μM; 20 nM [3H]-AMPA; 1 h at 4° C.
T1 construct: expressed in transfected cells; host or cells: HEK293-T/17 (CRL-11268), membranes
T1 sequence (P19491 22-883 isoform P19491-2 limits assumed): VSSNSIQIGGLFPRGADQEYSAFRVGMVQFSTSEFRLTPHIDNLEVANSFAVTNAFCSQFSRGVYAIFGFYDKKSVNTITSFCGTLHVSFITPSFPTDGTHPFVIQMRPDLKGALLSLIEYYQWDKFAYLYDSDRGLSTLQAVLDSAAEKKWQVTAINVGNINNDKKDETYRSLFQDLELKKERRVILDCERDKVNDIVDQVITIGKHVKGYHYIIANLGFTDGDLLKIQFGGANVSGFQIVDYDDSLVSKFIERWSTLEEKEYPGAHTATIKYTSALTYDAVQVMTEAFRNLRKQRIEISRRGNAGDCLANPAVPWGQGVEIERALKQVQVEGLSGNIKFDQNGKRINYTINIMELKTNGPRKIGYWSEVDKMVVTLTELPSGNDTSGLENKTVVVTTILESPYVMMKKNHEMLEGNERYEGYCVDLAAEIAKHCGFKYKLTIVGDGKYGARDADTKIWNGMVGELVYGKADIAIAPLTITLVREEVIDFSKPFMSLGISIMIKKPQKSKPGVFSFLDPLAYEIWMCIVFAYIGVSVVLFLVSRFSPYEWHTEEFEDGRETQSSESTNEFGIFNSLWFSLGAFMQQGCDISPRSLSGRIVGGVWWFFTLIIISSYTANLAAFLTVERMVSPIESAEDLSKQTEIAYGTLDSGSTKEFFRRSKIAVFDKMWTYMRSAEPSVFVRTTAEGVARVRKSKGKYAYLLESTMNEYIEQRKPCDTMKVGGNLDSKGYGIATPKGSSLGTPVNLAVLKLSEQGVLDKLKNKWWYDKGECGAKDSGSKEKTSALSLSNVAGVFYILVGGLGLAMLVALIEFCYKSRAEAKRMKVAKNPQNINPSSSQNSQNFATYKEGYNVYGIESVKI
Protocol: Radioligand binding. HEK293-T/17 cells were transfected with 5 μg of iGluR cDNA in 100 mm^2 culture dishes. Two days post transfection, the plates were washed twice with ice-cold Dulbecco's phosphate-buffered saline (DPBS) and then incubated with 50 mM Tris (pH 7.4) and 1 mM EDTA for three minutes on ice. Cells were collected and centrifuged for five minutes at 800 g at room temperature. The cell pellet was homogenized in 50 mM Tris (pH 7.4) containing 320 mM sucrose (homogenization buffer, HB) on ice using a glass dounce homogenizer and centrifuged at 4° C. for 10 minutes at 800 g. The supernatant, containing the membrane fragments, was saved and the remaining pellet containing nuclei and unbroken cells was resuspended in HB. This homogenization process was repeated two more times and after collection of the final resulting supernatant, the remaining pellet was discarded. The collected supernatants were centrifuged at 4° C. for 20 minutes at 20000 g and the resulting supernatant was discarded leaving a membrane-containing pellet. […] Non-specific binding was determined as the amount of radioligand bound in the presence of a saturating concentration of glutamate (1 mM). Total binding was determined as the amount of radioligand bound in the absence of any competing ligands minus the non-specific binding. […]

GluA4 = target: T2, GluA4 (Rattus norvegicus, UniProt P19493); assay: [3H]-AMPA radioligand binding, membranes of HEK293-T/17 cells expressing GluA4; details: 100 μM
T2 construct: expressed in transfected cells; host or cells: HEK293-T/17 (CRL-11268)
T2 sequence (P19493 21-902 isoform P19493-2 limits assumed): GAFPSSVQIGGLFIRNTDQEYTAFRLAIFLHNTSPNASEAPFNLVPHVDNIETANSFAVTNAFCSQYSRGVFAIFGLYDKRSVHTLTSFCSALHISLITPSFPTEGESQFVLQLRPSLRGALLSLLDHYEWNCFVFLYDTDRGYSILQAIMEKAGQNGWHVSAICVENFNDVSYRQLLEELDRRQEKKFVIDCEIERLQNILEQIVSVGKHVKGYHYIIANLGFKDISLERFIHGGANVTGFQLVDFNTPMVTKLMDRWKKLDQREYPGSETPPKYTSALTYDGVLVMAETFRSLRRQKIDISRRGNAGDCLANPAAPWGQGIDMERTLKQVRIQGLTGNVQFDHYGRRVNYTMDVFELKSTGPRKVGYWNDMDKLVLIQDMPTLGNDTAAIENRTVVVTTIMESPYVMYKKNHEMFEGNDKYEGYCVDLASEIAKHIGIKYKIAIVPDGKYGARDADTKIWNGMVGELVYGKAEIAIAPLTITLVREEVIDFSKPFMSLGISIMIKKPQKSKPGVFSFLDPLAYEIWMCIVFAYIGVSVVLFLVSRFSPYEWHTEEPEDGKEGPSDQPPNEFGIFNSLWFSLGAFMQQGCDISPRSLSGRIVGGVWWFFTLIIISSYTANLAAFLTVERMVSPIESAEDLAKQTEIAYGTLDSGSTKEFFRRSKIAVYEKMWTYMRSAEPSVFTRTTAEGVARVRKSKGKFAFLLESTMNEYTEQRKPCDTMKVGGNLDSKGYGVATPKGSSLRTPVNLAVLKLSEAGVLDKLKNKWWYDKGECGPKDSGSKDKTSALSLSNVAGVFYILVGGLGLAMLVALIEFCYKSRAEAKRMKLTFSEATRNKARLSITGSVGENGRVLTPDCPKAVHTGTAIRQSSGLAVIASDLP
Protocol: Radioligand binding. HEK293-T/17 cells were transfected with 5 μg of iGluR cDNA in 100 mm^2 culture dishes. Two days post transfection, the plates were washed twice with ice-cold Dulbecco's phosphate-buffered saline (DPBS) and then incubated with 50 mM Tris (pH 7.4) and 1 mM EDTA for three minutes on ice. Cells were collected and centrifuged for five minutes at 800 g at room temperature. The cell pellet was homogenized in 50 mM Tris (pH 7.4) containing 320 mM sucrose (homogenization buffer, HB) on ice using a glass dounce homogenizer and centrifuged at 4° C. for 10 minutes at 800 g. The supernatant, containing the membrane fragments, was saved and the remaining pellet containing nuclei and unbroken cells was resuspended in HB. This homogenization process was repeated two more times and after collection of the final resulting supernatant, the remaining pellet was discarded. The collected supernatants were centrifuged at 4° C. for 20 minutes at 20000 g and the resulting supernatant was discarded leaving a membrane-containing pellet. The pellets were resuspended in freshly prepared binding buffer containing (in mM) 50 Tris (pH 7.2), 2.5 CaCl2, 10% glycerol and 100 KSCN (for AMPA receptors) or exclusively 50 Tris (pH 7.4) (for kainate receptors). Membrane protein (50-100 μg) was combined with radiolabeled ligand (10 nM [^3H]-KA or 20 nM [^3H]-AMPA for kainate receptor and AMPA receptor binding, respectively), alone or with 100 μM of IKM-159, and then incubated for 1 h at 4° C. Non-specific binding was determined as the amount of radioligand bound in the presence of a saturating concentration of glutamate (1 mM). Total binding was determined as the amount of radioligand bound in the absence of any competing ligands minus the non-specific binding. […] Data were presented as a percentage of the total binding. All experimental conditions were performed in duplicate in each assay and then averaged for each trial.

mice = details: Ikoma et al., 2008; Oikawa et al., 2009 and unpublished observations; cited from earlier work

## O=C(O)C[C@@]12O[C@H]3C=CCN[C@H]3C1CN[C@H]2C(=O)O (stereo partly drawn) [IKM-159]
[1]
  NMDA receptor-mediated EPSC amplitude, % of control amplitudes: 99±3%
GluA2
  [3H]AMPA bound as percent of total (specific) binding in absence of competing ligand: 107±5%
GluA4; 20 nM [3H]-AMPA, 1 h at 4° C.
  [3H]AMPA bound as percent of total (specific) binding in absence of competing ligand: 90±6%
GluA4; 1 h pre-incubation prior to addition of the radioligand
  bound radioligand ([3H]-AMPA): 100%
GluA4; 2 h incubation with [3H]-AMPA
  bound radioligand ([3H]-AMPA): 113%
mice
  behavioral phenotype in mice: hypoactive phenotypes similar to cataleptic states; also recorded: marked hypoactivity and immobility
